Data reported in ChEMBL document CHEMBL1201862, “PubChem BioAssay data set” (2004).
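Growth conditions: 96-well plates. Treatment: test compound, 48 hours, 5 concentrations. Analysis: linear interpolation between bracketing concentrations; unreached endpoints set to highest concentration. GI50 is the concentration that inhibits growth by half.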 Calls of active or inactive are those of the source. No stated cut-off is given here; in the data, active = GI50 up to about 1.1 µM and inactive = higher.

Columns and labels:
Assay in all cases: inhibition of tumour cell growth, NCI panel, 48 h
[1] = system: 786-0
[2] = system: A549
[3] = system: ACHN
[4] = system: CAKI-1
[5] = system: CCRF-CEM
[6] = system: COLO 205
[7] = system: DU-145
[8] = system: EKVX
[9] = system: HCC 2998
[10] = system: HCT-116
[11] = system: HCT-15
[12] = system: HL-60
[13] = system: HOP-62
[14] = system: HOP-92
[15] = system: HT-29
[16] = system: Hs-578T
[17] = system: IGROV-1
[18] = system: K562
[19] = system: KM12
[20] = system: LOX IMVI
[21] = system: M14
[22] = system: MCF7
[23] = system: MDA-MB-231
[24] = system: MDA-MB-435
[25] = system: MDA-N
[26] = system: MOLT-4
[27] = system: Malme-3M
[28] = system: NCI-H226
[29] = system: NCI-H23
[30] = system: NCI-H460
[31] = system: NCI-H522
[32] = system: NCI/ADR-RES
[33] = system: OVCAR-3
[34] = system: OVCAR-4
[35] = system: OVCAR-5
[36] = system: OVCAR-8
[37] = system: PC-3
[38] = system: RPMI-8226
[39] = system: RXF 393
[40] = system: SF-268
[41] = system: SF-295
[42] = system: SF-539
[43] = system: SK-MEL-28
[44] = system: SK-MEL-5
[45] = system: SK-OV-3
[46] = system: SN12C
[47] = system: SNB-19
[48] = system: SNB-75
[49] = system: SR
[50] = system: SW-620
[51] = system: T47D
[52] = system: U-251
[53] = system: UACC-257
[54] = system: UACC-62
[55] = system: UO-31
[56] = system: A498
[57] = system: SK-MEL-2
[58] = system: TK-10

Measured: GI50

CCOC(=O)C(NC(=O)CC)(Nc1ccc(S(=O)(=O)Nc2ncccn2)cc1)C(F)(F)F (centres undefined)
inactive: [1] > 100 µM | [2] > 100 µM | [3] > 100 µM | [4] > 100 µM | [5] > 100 µM | [6] > 100 µM | [7] > 100 µM | [8] > 100 µM | [9] > 100 µM | [10] > 100 µM | [12] > 100 µM | [13] > 100 µM | [14] > 100 µM | [15] > 100 µM | [16] > 100 µM | [17] > 100 µM | [18] > 100 µM | [19] > 100 µM | [20] > 100 µM | [21] > 100 µM | [22] > 100 µM | [23] > 100 µM | [24] > 100 µM | [25] > 100 µM | [26] > 100 µM | [27] > 100 µM | [28] > 100 µM | [29] > 100 µM | [30] > 100 µM | [31] > 100 µM | [32] > 100 µM | [33] > 100 µM | [34] > 100 µM | [35] > 100 µM | [36] > 100 µM | [37] > 100 µM | [38] > 100 µM | [39] > 100 µM | [40] > 100 µM | [41] > 100 µM | [42] > 100 µM | [43] > 100 µM | [44] > 100 µM | [45] > 100 µM | [46] > 100 µM | [47] > 100 µM | [48] > 100 µM | [49] > 100 µM | [50] > 100 µM | [51] > 100 µM | [52] > 100 µM | [53] > 100 µM | [54] > 100 µM | [55] > 100 µM
> 100 µM: [11]

O=C1Nc2ccc(Br)cc2/C1=N/N1C(=O)C(=O)N(C2CCCCC2)C1=S
inactive: [1] 5.46 µM | [56] 3.76 µM | [2] 5.26 µM | [3] 4.83 µM | [4] 3.1 µM | [5] 2.21 µM | [6] 2.92 µM | [7] 9.42 µM | [8] 4.98 µM | [9] 3.64 µM | [10] 2.72 µM | [12] 2.16 µM | [13] 2.92 µM | [14] 14.4 µM | [15] 2.75 µM | [16] 8.38 µM | [18] 3.69 µM | [19] 3.48 µM | [20] 4.07 µM | [21] 1.64 µM | [22] 4.17 µM | [23] 6.64 µM | [24] 1.94 µM | [25] 2.02 µM | [26] 2.26 µM | [27] 3.21 µM | [28] 7.03 µM | [29] 7.11 µM | [30] 3.66 µM | [32] 3.22 µM | [33] 2.47 µM | [34] 4.44 µM | [35] 9.75 µM | [37] 3.52 µM | [38] 4.25 µM | [39] 10 µM | [40] 6.7 µM | [41] 3.16 µM | [42] 5.66 µM | [43] 4.07 µM | [57] 1.41 µM | [44] 4.34 µM | [45] 4.33 µM | [46] 3.43 µM | [47] 9.64 µM | [49] 1.19 µM | [50] 3.56 µM | [51] 2.62 µM | [58] 12.2 µM | [52] 2.93 µM | [53] 9.55 µM | [54] 3.05 µM | [55] 1.51 µM
2.42 µM: [11]
